Data as given in patent US20220089592A1, “IMIDAZO[1,2-A]PYRIDINYL DERIVATIVES AS IRAK4 INHIBITORS” (priority 2019, published 2022).
Structures can show the parent of a compound that is named as a salt.

Tests used:
IRAK4 [1] = molecular target: T1, IRAK4 (Homo sapiens, UniProt Q9NWZ3); assay: 2-hour 10 μM ATP Biochemical Assay (MesoScale Detection format; IRAK4 phosphorylation of biotin labeled IRAK1 activation loop peptide); settings: IRAK4 MSD BIOCHEMICAL (10 μM ATP) IC50 (μM), 1 nM IRAK4, 2 hours
T1 sequence (Q9NWZ3 1-460): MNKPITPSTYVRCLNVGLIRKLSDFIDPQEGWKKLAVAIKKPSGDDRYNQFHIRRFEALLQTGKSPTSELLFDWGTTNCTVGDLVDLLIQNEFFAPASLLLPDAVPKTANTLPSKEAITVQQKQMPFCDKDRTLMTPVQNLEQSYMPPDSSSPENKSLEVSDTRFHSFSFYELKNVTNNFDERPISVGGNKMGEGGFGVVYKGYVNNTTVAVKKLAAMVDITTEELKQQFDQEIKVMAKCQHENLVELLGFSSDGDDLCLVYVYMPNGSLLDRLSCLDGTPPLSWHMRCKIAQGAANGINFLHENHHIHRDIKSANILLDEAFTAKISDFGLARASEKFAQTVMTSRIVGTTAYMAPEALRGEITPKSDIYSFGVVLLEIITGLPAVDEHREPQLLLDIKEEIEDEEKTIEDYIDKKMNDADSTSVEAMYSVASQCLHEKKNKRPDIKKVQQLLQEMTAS
Procedure, shortened: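 Kinase reaction run 2 h at 10 μM ATP with biotinylated IRAK1 activation-loop peptide, quenched with EDTA. Phospho-peptide captured on streptavidin MSD plates and detected with anti-phosphothreonine rabbit antibody plus Sulfo-Tag anti-rabbit electrochemiluminescence.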

IRAK4 [2] = molecular target: T1, IRAK4; assay: 2-hour 1 mM ATP IRAK4 Biochemical assay (as above, but with 100 pM IRAK4 and 1 mM ATP); settings: IRAK4 MSD BIOCHEMICAL (1 mM ATP) IC50 (μM), 100 pM IRAK4, 2 hours
Procedure, shortened: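 Run with 100 pM IRAK4 and 1 mM ATP for 2 hours, quenched with EDTA pH 8. Phosphorylated biotinylated peptide captured on streptavidin MSD plates and detected with anti-phosphothreonine antibody plus Sulfo-Tag secondary by electrochemiluminescence.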

For CCOc1nc2nc(CCCOC)cn2cc1NC(=O)c1cccc(C(F)F)n1 [Example 242, 6-(difluoromethyl)-N-(7-ethoxy-2-(3-methoxypropyl)imidazo[1,2-a]pyrimidin-6-yl)picolinamide], which IC50 (IRAK4 [1]) is on record?
The IC50 was 0.001 µM.

What about the IC50 (IRAK4 [2]) of the same compound?
The IC50 was 0.003 µM.

How did the IC50 (IRAK4 [1]) turn out when CCOc1nc2nc(C3CC3)cn2cc1NC(=O)c1cccc(C(F)F)n1 [Example 243, N-(2-cyclopropyl-7-ethoxyimidazo[1,2-a]pyrimidin-6-yl)-6-(difluoromethyl)picolinamide] was run?
The IC50 was 0.003 µM.

What about the IC50 (IRAK4 [2]) of the same compound?
Its IC50 is 0.014 µM.

How did the IC50 (IRAK4 [1]) turn out when CCOc1cc2nc(C3CCCC(=O)N3C)cn2cc1NC(=O)c1cccc(C(F)F)n1 (stereo not shown) [Example 246, 6-(difluoromethyl)-N-(7-ethoxy-2-(1-methyl-6-oxopiperidin-2-yl)imidazo[1,2-a]pyridin-6-yl)picolinamide] was run?
The IC50 was 0.001 µM.

And the IC50 (IRAK4 [2])?
The IC50 was 0.001 µM.

Which IC50 (IRAK4 [1]) does the source give for CCOc1cc2nc(C3CCCC(OC)C3)cn2cc1NC(=O)c1cccc(C(F)F)n1 (stereo not shown) [Example 256, 6-(difluoromethyl)-N-(7-ethoxy-2-(3-methoxycyclohexyl)imidazo[1,2-a]pyridin-6-yl)picolinamide] here?
The IC50 was 0.001 µM.

What about the IC50 (IRAK4 [2]) of the same compound?
Its IC50 is 0.001 µM.

Which results are given for COc1cc(NC(=O)c2cccc(C(F)F)n2)cn2cc(C3CCOCC3)nc12 [Example 304, 6-(difluoromethyl)-N-(8-methoxy-2-(tetrahydro-2H-pyran-4-yl)imidazo[1,2-a]pyridin-6-yl)picolinamide]?
IC50 (IRAK4 [1]): 0.006 µM; IC50 (IRAK4 [2]): 0.013 µM

With O=C(Nc1cn2cc(C3CCOCC3)nc2cn1)c1cccc(C(F)F)n1 [Example 330, 6-(difluoromethyl)-N-(2-(tetrahydro-2H-pyran-4-yl)imidazo[1,2-a]pyrazin-6-yl)picolinamide] as the compound, how does the IC50 (IRAK4 [1]) read?
Its IC50 is 0.023 µM.

What about the IC50 (IRAK4 [2]) of the same compound?
Its IC50 is 0.038 µM.

With O=C(Nc1ccc2nc(CC3CCOC3)cn2c1)c1cccc(C(F)F)n1 (stereo not shown) [Example 355, 6-(difluoromethyl)-N-(2-((tetrahydrofuran-3-yl)methyl)imidazo[1,2-a]pyridin-6-yl)picolinamide] as the compound, how does the IC50 (IRAK4 [1]) read?
The IC50 was 0.008 µM.

What about the IC50 (IRAK4 [2]) of the same compound?
Its IC50 is 0.042 µM.

Which results are given for O=C(Nc1ccc2nc(C3CCOCC3)cn2c1)c1cccc(C(F)F)n1 [Example 356, 6-(difluoromethyl)-N-(2-(tetrahydro-2H-pyran-4-yl)imidazo[1,2-a]pyridin-6-yl)picolinamide]?
IC50 (IRAK4 [1]): 0.015 µM; IC50 (IRAK4 [2]): 0.033 µM

With CCOc1cc2nc(C(C)(C)C#N)cn2cc1NC(=O)c1coc(C(C)C)n1 [Example 358, N-(2-(2-cyanopropan-2-yl)-7-ethoxyimidazo[1,2-a]pyridin-6-yl)-2-isopropyloxazole-4-carboxamide] as the compound, how does the IC50 (IRAK4 [1]) read?
The IC50 was 0.006 µM.

And the IC50 (IRAK4 [2])?
Its IC50 is 0.014 µM.

What does the source list for CCOc1cc2nc(C(C)(C)C#N)cn2cc1NC(=O)c1coc(C(F)F)n1 [Example 359, N-(2-(2-cyanopropan-2-yl)-7-ethoxyimidazo[1,2-a]pyridin-6-yl)-2-(difluoromethyl)oxazole-4-carboxamide]?
IC50 (IRAK4 [1]): 0.01 µM; IC50 (IRAK4 [2]): 0.023 µM

For CCOc1cc2nc(C(C)(C)C#N)cn2cc1NC(=O)c1coc(C2CC2)n1 [Example 360, N-(2-(2-cyanopropan-2-yl)-7-ethoxyimidazo[1,2-a]pyridin-6-yl)-2-cyclopropyloxazole-4-carboxamide], which IC50 (IRAK4 [1]) is on record?
The IC50 was 0.006 µM.

And the IC50 (IRAK4 [2])?
Its IC50 is 0.005 µM.

With CCOc1cc2nc(C3CCOCC3)cn2cc1NC(=O)c1cccc(OC2CC2)n1 [Example 361, 6-cyclopropoxy-N-(7-ethoxy-2-(tetrahydro-2H-pyran-4-yl)imidazo[1,2-a]pyridin-6-yl)picolinamide] as the compound, how does the IC50 (IRAK4 [1]) read?
The IC50 was 0.002 µM.

And the IC50 (IRAK4 [2])?
Its IC50 is 0.01 µM.

How did the IC50 (IRAK4 [1]) turn out when CCOc1cc2nc(C3CCOCC3)cn2cc1NC(=O)c1cccc(OC(F)F)n1 [Example 362, 6-(difluoromethoxy)-N-(7-ethoxy-2-(tetrahydro-2H-pyran-4-yl)imidazo[1,2-a]pyridin-6-yl)picolinamide] was run?
Its IC50 is 0.006 µM.

And the IC50 (IRAK4 [2])?
The IC50 was 0.017 µM.

Which IC50 (IRAK4 [1]) does the source give for CCOc1cc2nc(C3CCOCC3)cn2cc1NC(=O)c1cccc(COC)n1 [Example 364, N-(7-ethoxy-2-(tetrahydro-2H-pyran-4-yl)imidazo[1,2-a]pyridin-6-yl)-6-(methoxymethyl)picolinamide] here?
Its IC50 is 0.004 µM.

And the IC50 (IRAK4 [2])?
Its IC50 is 0.013 µM.

What does the source list for CCOc1cc2nc(C3CCOCC3)cn2cc1NC(=O)c1cccc(C#N)n1 [Example 365, 6-cyano-N-(7-ethoxy-2-(tetrahydro-2H-pyran-4-yl)imidazo[1,2-a]pyridin-6-yl)picolinamide]?
IC50 (IRAK4 [1]): 0.002 µM; IC50 (IRAK4 [2]): 0.006 µM

What does the source list for CCOc1cc2nc(C3CCOCC3)cn2cc1NC(=O)c1cccc(C2CC2)n1 [Example 366, 6-cyclopropyl-N-(7-ethoxy-2-(tetrahydro-2H-pyran-4-yl)imidazo[1,2-a]pyridin-6-yl)picolinamide]?
IC50 (IRAK4 [1]): 0.003 µM; IC50 (IRAK4 [2]): 0.004 µM

Which results are given for CCOc1nc2nc(C3CCOCC3)cn2cc1NC(=O)c1cccc(OC)n1 [Example 368, N-(7-ethoxy-2-(tetrahydro-2H-pyran-4-yl)imidazo[1,2-a]pyrimidin-6-yl)-6-methoxypicolinamide]?
IC50 (IRAK4 [1]): 0.008 µM; IC50 (IRAK4 [2]): 0.016 µM

With CCOc1cc2nc(CC3CCOC3)cn2cc1NC(=O)c1ccc2c(n1)CCC2 (stereo not shown) [Example 369, N-(7-ethoxy-2-((tetrahydrofuran-3-yl)methyl)imidazo[1,2-a]pyridin-6-yl)-6,7-dihydro-5H-cyclopenta[b]pyridine-2-carboxamide] as the compound, how does the IC50 (IRAK4 [1]) read?
The IC50 was 0.002 µM.

What about the IC50 (IRAK4 [2]) of the same compound?
The IC50 was 0.026 µM.

CCOc1nc2nc(C3CCOCC3)cn2cc1NC(=O)c1cccc(C(F)F)n1 [Example 372, 6-(difluoromethyl)-N-(7-ethoxy-2-(tetrahydro-2H-pyran-4-yl)imidazo[1,2-a]pyrimidin-6-yl)picolinamide] was tested. Which IC50 (IRAK4 [1]) did it give?
The IC50 was 0.001 µM.

What about the IC50 (IRAK4 [2]) of the same compound?
The IC50 was 0.002 µM.

What does the source list for CCOc1cc2nc(CC3CCOC3)cn2cc1NC(=O)c1cccn(C)c1=O (stereo not shown) [Example 373, N-(7-ethoxy-2-((tetrahydrofuran-3-yl)methyl)imidazo[1,2-a]pyridin-6-yl)-1-methyl-2-oxo-1,2-dihydropyridine-3-carboxamide]?
IC50 (IRAK4 [1]): 0.008 µM; IC50 (IRAK4 [2]): 0.028 µM

CCOc1cc(NC(=O)c2cccc(C(F)F)n2)cn2cc(C3CCOCC3)nc12 [Example 413, 6-(difluoromethyl)-N-(8-ethoxy-2-(tetrahydro-2H-pyran-4-yl)imidazo[1,2-a]pyridin-6-yl)picolinamide] was tested. Which IC50 (IRAK4 [1]) did it give?
Its IC50 is 0.005 µM.

And the IC50 (IRAK4 [2])?
The IC50 was 0.015 µM.

Which IC50 (IRAK4 [1]) does the source give for COc1nc(NC(=O)c2cccc(C(F)(F)F)n2)cn2cc(C3CCOCC3)nc12 [Example 451, N-(8-methoxy-2-(tetrahydro-2H-pyran-4-yl)imidazo[1,2-a]pyrazin-6-yl)-6-(trifluoromethyl)picolinamide 2,2,2-trifluoroacetate] here?
The IC50 was 0.029 µM.

And the IC50 (IRAK4 [2])?
The IC50 was 0.066 µM.

With COc1nc(NC(=O)c2ccn(C)n2)cn2cc(C3CCOCC3)nc12 [Example 461, N-(8-methoxy-2-(tetrahydro-2H-pyran-4-yl)imidazo[1,2-a]pyrazin-6-yl)-1-methyl-1H-pyrazole-3-carboxamide Hydrochloride] as the compound, how does the IC50 (IRAK4 [1]) read?
Its IC50 is 0.033 µM.

And the IC50 (IRAK4 [2])?
The IC50 was 0.148 µM.

Which results are given for COc1cc(NC(=O)c2cccc(C(F)F)n2)cn2cc(C3CC4(CCOC4)C3)nc12 (stereo not shown) [Example 507, 6-(difluoromethyl)-N-(8-methoxy-2-(6-oxaspiro[3.4]octan-2-yl)imidazo[1,2-a]pyridin-6-yl)picolinamide]?
IC50 (IRAK4 [1]): 0.002 µM; IC50 (IRAK4 [2]): 0.004 µM

Which results are given for COc1cc(NC(=O)c2cccc(C(F)F)n2)cn2cc(C3CCOC(C)(C)C3)nc12 (stereo not shown) [Example 510, 6-(difluoromethyl)-N-(2-(2,2-dimethyltetrahydro-2H-pyran-4-yl)-8-methoxyimidazo[1,2-a]pyridin-6-yl)picolinamide 2,2,2-trifluoroacetate]?
IC50 (IRAK4 [1]): 0.001 µM; IC50 (IRAK4 [2]): 0.002 µM

Which results are given for CCOc1cc2nc(C3CCOCC3)cn2cc1NC(=O)c1cccc(OCCOC)n1 [Example 516, N-(7-ethoxy-2-(tetrahydro-2H-pyran-4-yl)imidazo[1,2-a]pyridin-6-yl)-6-(2-methoxyethoxy)picolinamide]?
IC50 (IRAK4 [1]): 0.007 µM; IC50 (IRAK4 [2]): 0.034 µM

For CCOc1cc2nc(C34CC(C)(C3)C4)cn2cc1NC(=O)c1cccc(C(F)(F)F)n1 [Example 520, N-(7-ethoxy-2-(3-methylbicyclo[1.1.1]pentan-1-yl)imidazo[1,2-a]pyridin-6-yl)-6-(trifluoromethyl)picolinamide 2,2,2-trifluoroacetate], which IC50 (IRAK4 [1]) is on record?
The IC50 was 0.001 µM.

What about the IC50 (IRAK4 [2]) of the same compound?
The IC50 was 0.005 µM.

How did the IC50 (IRAK4 [1]) turn out when CCOc1cc2nc(C34CC(C#N)(C3)C4)cn2cc1NC(=O)c1cccc(C(F)(F)F)n1 [Example 521, N-(2-(3-cyanobicyclo[1.1.1]pentan-1-yl)-7-ethoxyimidazo[1,2-a]pyridin-6-yl)-6-(trifluoromethyl)picolinamide 2,2,2-trifluoroacetate] was run?
Its IC50 is 0.001 µM.

What about the IC50 (IRAK4 [2]) of the same compound?
The IC50 was 0.001 µM.

CCOc1cc2nc(C34CC(C(F)F)(C3)C4)cn2cc1NC(=O)c1cccc(C(F)(F)F)n1 [Example 522, N-(2-(3-(difluoromethyl)bicyclo[1.1.1]pentan-1-yl)-7-ethoxyimidazo[1,2-a]pyridin-6-yl)-6-(trifluoromethyl)picolinamide 2,2,2-trifluoroacetate] was tested. Which IC50 (IRAK4 [1]) did it give?
The IC50 was 0.001 µM.

What about the IC50 (IRAK4 [2]) of the same compound?
The IC50 was 0.002 µM.
